We go through 17 compounds from patent US10138207B2, “Benzomorphan analogs and the use thereof” (priority 2012, dated 2018).

The structures appear in SMILES notation. Read-outs that look alike come from different tables or passages of the source.

The target of test [1] is T1, μ-opioid receptor (Homo sapiens, UniProt P35372). Briefly: μ-opioid receptor [35S]GTPγS functional assay, HEK-293 or CHO cells. As to conditions: for Emax: read-out: GTPγS μ Emax. A general note: GTPγS resists hydrolysis and so accumulates on activated G proteins.
T1 sequence (P35372 whole entry, species assumed): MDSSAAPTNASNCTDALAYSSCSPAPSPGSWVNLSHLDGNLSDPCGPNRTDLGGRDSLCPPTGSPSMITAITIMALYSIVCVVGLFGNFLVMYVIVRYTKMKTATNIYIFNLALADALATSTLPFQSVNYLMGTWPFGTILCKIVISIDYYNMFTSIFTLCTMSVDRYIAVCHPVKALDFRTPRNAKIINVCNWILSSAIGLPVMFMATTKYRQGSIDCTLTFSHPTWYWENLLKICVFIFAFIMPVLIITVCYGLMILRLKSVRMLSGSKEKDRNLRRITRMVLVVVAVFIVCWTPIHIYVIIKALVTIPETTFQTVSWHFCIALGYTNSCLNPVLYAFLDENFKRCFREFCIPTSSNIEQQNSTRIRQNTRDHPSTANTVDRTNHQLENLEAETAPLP
Test [2] concerns the target T1, μ-opioid receptor. Briefly: μ-opioid receptor [35S]GTPγS functional assay, U-2 OS cells. It is filed as biochemical. More on the design: expressed in transfected cells; host or cells: U-2 OS. As to conditions: for Emax: read-out: GTPγS μ Emax.
Test [3] addresses T2, κ opioid receptor (Homo sapiens, UniProt P41145). Briefly: κ-opioid receptor [35S]GTPγS functional assay, HEK-293 or CHO cells. The arrangement: expressed in transfected cells; host or cells: U-2 OS (in-house membranes). As to conditions: for Emax: relative to U69,593. It counts as biochemical. The protocol:
Membranes from recombinant HEK-293 cells, CHO or U-2 OS cells expressing the recombinant human κ opioid receptor (κ) were prepared by lysing cells in ice cold hypotonic buffer (2.5 mM MgCl2, 50 mM HEPES, pH 7.4) (10 mL/10 cm dish) followed by homogenization with a tissue grinder/Teflon pestle. Membranes from a cell line naturally expressing kappa opioid receptors can also be used. Membranes were collected by centrifugation at 30,000×g for 15 min at 4° C. and pellets were resuspended in hypotonic buffer to a final concentration of 1-3 mg/mL. Protein concentrations were determined using the BioRad protein assay reagent with bovine serum albumen as standard. Aliquots of κ receptor membranes were stored at −80° C.
Plates were incubated for 30 min at a temperature of about 25° C. with shaking.

The target in test [4] is T2, κ opioid receptor. Briefly: biochemical. The conditions noted are these: HEK-293 or CHO cells. The arrangement: expressed in transfected cells; host or cells: HEK 293 (in-house membrane prep). It counts as binding.
Setting [5] is: U-2 OS cells, read-out: GTPγS μ EC50.
The mark [6] stands for this setting: U-2 OS cells, relative to DAMGO.
Setting [7] is: HEK-293 or CHO cells, bound in μM, read-out: GTPγS κ EC50.

T2 sequence (P41145 whole entry): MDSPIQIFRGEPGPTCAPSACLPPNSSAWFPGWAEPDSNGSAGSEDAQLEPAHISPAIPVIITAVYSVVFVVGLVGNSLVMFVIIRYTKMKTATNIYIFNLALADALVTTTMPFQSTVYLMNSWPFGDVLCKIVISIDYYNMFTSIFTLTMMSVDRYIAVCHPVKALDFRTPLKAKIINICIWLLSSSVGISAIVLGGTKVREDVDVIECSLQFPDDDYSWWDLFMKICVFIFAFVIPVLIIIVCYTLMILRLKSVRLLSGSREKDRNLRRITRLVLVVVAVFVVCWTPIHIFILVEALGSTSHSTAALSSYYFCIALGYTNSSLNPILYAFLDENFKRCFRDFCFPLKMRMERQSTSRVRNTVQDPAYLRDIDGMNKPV

`CN1CC[C@]2(C)c3cc(O)ccc3CC1C2N(C)c1ccc(CCS(N)(=O)=O)cc1` (stereo in doubt) [Compound 51, 2-(4-(((2R,6R,11S)-8-hydroxy-3,6-dimethyl-1,2,3,4,5,6-hexahydro-2,6-methanobenzo[d]azocin-11-yl)(methyl)amino)phenyl)ethanesulfonamide]: the EC50 – broadly, the midpoint of the concentration-response curve – was 0.00144 ± 0.00044 µM in test [1], 0.00021 ± 2.1e-05 µM in test [2] (setting [5]) and greater than 20 µM in test [3] (setting [7]). Moreover, the Emax (commonly the size of the effect at its maximum, as opposed to the concentration needed) in test [1] came to 100 ± 7.22%; in test [2] (setting [6]), 113 ± 2.65%. The Ki (in general, the dissociation constant of the complex between target and ligand, obtained from inhibition or displacement) in test [4] came to 0.00783 ± 0.00095 µM.

Turning to `CC(C)CC(NC(=O)N(C)C1[C@H]2Cc3ccc(O)cc3[C@]1(C)CCN2C)C(=O)O` (stereo in doubt) [Compound 76, 2-(3-((2R,6S,11S)-8-hydroxy-3,6-dimethyl-1,2,3,4,5,6-hexahydro-2,6-methanobenzo[d]azocin-11-yl)-3-methylureido)-4-methylpentanoic acid], the EC50 is 0.811 ± 0.053 µM in test [1] and greater than 20 µM in test [3] (setting [7]). For the same compound, the Emax in test [1] was 79.3 ± 3.48%; in test [3] (HEK-293 or CHO cells) it was -0.33 ± 0.67%. This compound also registered an inhibitory constant (Ki) in test [4] of 0.107 ± 0.00133 µM.

Take `CN1CC[C@]2(C)c3cc(O)ccc3CC1C2N(C)C(=O)Nc1ccc(C#N)cc1` (stereo in doubt) [Compound 78, 3-(4-cyanophenyl)-1-((2R,6R,11S)-8-hydroxy-3,6-dimethyl-1,2,3,4,5,6-hexahydro-2,6-methanobenzo[d]azocin-11-yl)-1-methylurea]: the values for the half-maximal effective concentration (EC50) in test [2] (setting [5]) and in test [3] (setting [7]) were 0.00609 ± 0.00045 µM and greater than 20 µM, respectively. Moreover, in test [2] (setting [6]), the Emax was found to be 109 ± 3.28%. The compound further displayed a Ki in test [4] of 0.0179 ± 0.00433 µM.

Turning to `CN(C(=O)Nc1ccc(C#N)cc1)C1C2Cc3ccc(O)cc3[C@@]1(C)CCN2CCc1ccccc1` (stereo in doubt) [Compound 87, 3-(4-cyanophenyl)-1-((2R,6R,11S)-8-hydroxy-6-methyl-3-phenethyl-1,2,3,4,5,6-hexahydro-2,6-methanobenzo[d]azocin-11-yl)-1-methylurea], the concentration giving a half-maximal response (EC50) in test [1] was 0.00529 ± 0.0011 µM; in test [2] (setting [5]), 0.00208 ± 0.00012 µM; in test [3] (HEK-293 or CHO cells, read-out: GTPγS κ EC50) it was 0.024 ± 0.00194 µM. Besides, the values for the Emax in test [1], in test [2] (setting [6]) and in test [3] (HEK-293 or CHO cells) were 96.3 ± 2.96%, 99.3 ± 2.03% and 10.8 ± 1.49%, respectively. This compound also gave an inhibitory constant (Ki) in test [4] of 0.00121 ± 0.00024 µM.

`CN(C(=O)Nc1ccc(C#N)cc1)C1C2Cc3ccc(O)cc3[C@@]1(C)CCN2Cc1ccoc1` (stereo in doubt) [Compound 90, 3-(4-cyanophenyl)-1-((2R,6R,11S)-3-(furan-3-ylmethyl)-8-hydroxy-6-methyl-1,2,3,4,5,6-hexahydro-2,6-methanobenzo[d]azocin-11-yl)-1-methylurea]: the half-maximal effective concentration (EC50) in test [1] is 0.00592 ± 0.00182 µM; in test [2] (setting [5]) it was 0.00702 ± 0.00189 µM; in test [3] (setting [7]) it was greater than 20 µM. For the same compound, the results for the Emax in test [1], in test [2] (setting [6]) and in test [3] (HEK-293 or CHO cells) were 32.7 ± 5.78%, 14 ± 1% and 1%, respectively. The inhibition constant (Ki) in test [4] turned out to be 0.00174 ± 0.00045 µM.

Regarding `CN(C)C(=O)C(CCN1CC[C@]2(C)c3cc(O)ccc3CC1[C@H]2O)(c1ccccc1)c1ccccc1` [Compound 22, 4-((6R,11S)-8,11-dihydroxy-6-methyl-1,2,5,6-tetrahydro-2,6-methanobenzo[d]azocin-3(4H)-yl)-N,N-dimethyl-2,2-diphenylbutanamide], the values for the concentration giving a half-maximal response (EC50) in test [2] (setting [5]) and in test [3] (setting [7]) were 0.3 ± 0.0458 µM and greater than 20 µM, respectively. In test [2] (setting [6]), the Emax came to 71 ± 3.46%. Affinity in test [4] was put at a Ki of 0.0257 ± 0.00874 µM.

In the case of `CN1CC[C@@]2(C)c3cc(O)ccc3C[C@@H]1[C@@H]2NCC1CCN(C(=O)OC(C)(C)C)CC1` [Compound 30, tert-butyl 4-((((2R,6S,11R)-8-hydroxy-3,6-dimethyl-1,2,3,4,5,6-hexahydro-2,6-methanobenzo[d]azocin-11-yl)amino)methyl)piperidine-1-carboxylate], the concentration for a half-maximal effect (EC50) was 0.27 ± 0.0339 µM in test [1], 0.0336 ± 0.00817 µM in test [2] (setting [5]) and greater than 20 µM in test [3] (setting [7]). The figures for the Emax in test [1] and in test [3] (HEK-293 or CHO cells) were 49.7 ± 3.67% and 0.33 ± 0.67%, respectively. Moreover, the “GTPγS μ Emax” value in test [2] (setting [6]) worked out at 91.70 ± 4.33%. The compound further had a Ki in test [4] of 0.00766 ± 0.00196 µM.

For the compound `CN1CC[C@@]2(C)c3cc(O)ccc3C[C@@H]1[C@@H]2N(C)CC1CCN(C(=O)OC(C)(C)C)CC1` [Compound 31, tert-butyl 4-((((2R,6S,11R)-8-hydroxy-3,6-dimethyl-1,2,3,4,5,6-hexahydro-2,6-methanobenzo[d]azocin-11-yl)(methyl)amino)methyl)piperidine-1-carboxylate], the EC50 was 0.0123 ± 0.00095 µM in test [1], 0.00041 ± 0.00038 µM in test [2] (setting [5]) and greater than 20 µM in test [3] (setting [7]). Moreover, the results for the Emax in test [1], in test [2] (setting [6]) and in test [3] (HEK-293 or CHO cells) were 61 ± 3%, 94.3 ± 3.18% and 1%, respectively. Also, the affinity in test [4], expressed as Ki, was 0.00034 ± 9e-05 µM.

Consider `CN1CC[C@]2(C)c3cc(O)ccc3C[C@@H]1[C@@H]2N(C)C(=O)c1ccccc1` [Compound 39, N-((2R,6R,11R)-8-hydroxy-3,6-dimethyl-1,2,3,4,5,6-hexahydro-2,6-methanobenzo[d]azocin-11-yl)-N-methylbenzamide], for which the values for the concentration for a half-maximal effect (EC50) in test [1], in test [2] (setting [5]) and in test [3] (setting [7]) were 0.321 ± 0.0222 µM, 0.0183 ± 0.00122 µM and greater than 20 µM, respectively. The Emax in test [1] was 89.8 ± 5.39%; in test [2] (setting [6]), 101 ± 3.76%; in test [3] (HEK-293 or CHO cells), -1%. In addition, affinity in test [4] was put at a Ki of 0.082 ± 0.0104 µM.

For the compound `CN1CC[C@]2(C)c3cc(O)ccc3CC1[C@@H]2COc1ncc([C@H](O)CO)cc1Cl` [Compound 43, (1S)-1-(5-chloro-6-(((6S,11R)-8-hydroxy-3,6-dimethyl-1,2,3,4,5,6-hexahydro-2,6-methanobenzo[d]azocin-11-yl)methoxy)pyridin-3-yl)ethane-1,2-diol], the EC50 in test [1] was 3.39 ± 0.0634 µM; in test [3], greater than 20 µM. Moreover, the Emax in test [1] amounted to 24.7 ± 3.28%. The same compound displayed an inhibitory constant (Ki) in test [4] of 0.516 ± 0.126 µM.

On to `CN1CC[C@]2(C)c3cc(O)ccc3CC1[C@H]2COc1ccc(C(N)=O)cc1` [Compound 44, 4-(((6S,11S)-8-hydroxy-3,6-dimethyl-1,2,3,4,5,6-hexahydro-2,6-methanobenzo[d]azocin-11-yl)methoxy)benzamide], for which the EC50 in test [1] turned out to be 0.718 ± 0.249 µM; in test [3], 0.394 ± 0.0884 µM. Further, the Emax in test [1] worked out at 65 ± 2.52%; in test [3] (HEK-293 or CHO cells), 17.7 ± 1.2%. This compound yielded an inhibitory constant (Ki) in test [4] of 0.166 ± 0.0623 µM.

Turning to `COc1ccc2c(c1)[C@@]1(C)CCN(C)C(C2)[C@@H]1c1cccc(C(N)=O)c1` [Compound 54, 3-((6S,11R)-8-methoxy-3,6-dimethyl-1,2,3,4,5,6-hexahydro-2,6-methanobenzo[d]azocin-11-yl)benzamide], the EC50 in test [1] and in test [3] (setting [7]) was greater than 20 µM in each case. For the same compound, the affinity in test [4], expressed as Ki, was 0.259 ± 0.0336 µM.

For the compound `CN[C@@H]1[C@H]2Cc3ccc(OC)cc3[C@@]1(C)CCN2CC1CC1` [Compound 56, (2R,6R,11S)-3-(cyclopropylmethyl)-8-methoxy-N,6-dimethyl-1,2,3,4,5,6-hexahydro-2,6-methanobenzo[d]azocin-11-amine], the half-maximal effective concentration (EC50) in test [1] came to 3.81 ± 0.726 µM; in test [3], 2.58 ± 0.721 µM. For the same compound, the Emax in test [1] was 36.7 ± 7.22%; in test [3] (HEK-293 or CHO cells), 25.7 ± 1.67%. The compound also returned a Ki in test [4] of 0.17 ± 0.0519 µM.

As for `COc1ccc2c(c1)[C@@]1(C)CCN(C)C(C2)[C@]1(O)c1cccc(C(N)=O)c1` [Compound 63, 3-((6R,11S)-11-hydroxy-8-methoxy-3,6-dimethyl-1,2,3,4,5,6-hexahydro-2,6-methanobenzo[d]azocin-11-yl)benzamide], the EC50 in test [1] and in test [3] (setting [7]) was greater than 20 µM throughout. In addition, the inhibition constant (Ki) in test [4] worked out at 0.34 ± 0.0909 µM.

As for `COc1ccc2c(c1)[C@@]1(C)CCN(C)C(C2)[C@@H]1CNC(=O)Cc1ccc(Cl)c(Cl)c1` [Compound 75, 2-(3,4-dichlorophenyl)-N-(((6S,11S)-8-methoxy-3,6-dimethyl-1,2,3,4,5,6-hexahydro-2,6-methanobenzo[d]azocin-11-yl)methyl)acetamide], the EC50 in test [1] is 0.0623 ± 0.0137 µM; in test [2] (GTPγS μ EC50, U-2 OS cells), 0.0127 ± 0.00152 µM; in test [3], greater than 20 µM. For the same compound, the Emax in test [1] worked out at 112 ± 2.4%; in test [2] (setting [6]), 104 ± 2.67%; in test [3] (HEK-293 or CHO cells) it was 0.33 ± 0.67%. The compound also displayed an inhibition constant Ki in test [4] of 0.185 ± 0.0513 µM.

For `CN(C(=O)/C=C/c1ccoc1)[C@@H]1[C@H]2Cc3ccc(O)cc3[C@@]1(C)CCN2CC1CC1` [Compound 77, (E)-N-((2R,6R,11S)-3-(cyclopropylmethyl)-8-hydroxy-6-methyl-1,2,3,4,5,6-hexahydro-2,6-methanobenzo[d]azocin-11-yl)-3-(furan-3-yl)-N-methylacrylamide], the EC50 in test [1] is 0.144 ± 0.011 µM; in test [2] (GTPγS μ EC50, U-2 OS cells), 0.029 ± 0.00086 µM; in test [3], greater than 20 µM. Besides, the Emax is 56.5 ± 2.02% in test [1], 77.7 ± 0.88% in test [2] (setting [6]) and -1% in test [3] (HEK-293 or CHO cells). For the same compound, in test [4], the Ki worked out at 0.0043 ± 0.00091 µM.

With `CN(C(=O)Nc1ccc(C#N)cc1)[C@@H]1C2Cc3ccc(O)cc3[C@@]1(C)CCN2CC1CC1` [Compound 81, 3-(4-cyanophenyl)-1-((6R,11S)-3-(cyclopropylmethyl)-8-hydroxy-6-methyl-1,2,3,4,5,6-hexahydro-2,6-methanobenzo[d]azocin-11-yl)-1-methylurea], in test [1], the response was half-maximal at 1.23 ± 0.173 µM (EC50) and the Emax worked out at 31.2 ± 2.87%. Moreover, the EC50 in test [3] (setting [7]) was greater than 20 µM. In test [4], this compound came in with a Ki of 0.0366 ± 0.00494 µM.
